EC50 data for 22 molecules are collected here from patent US11230526B1, “Cylcoalkenyl derivatives useful as agonists of the GPR120 and/or GPR40 receptors” (Janssen Pharmaceutica NV, priority 2018, dated 2022).

Some results are limits rather than exact numbers.

Type in all cases: cell-based
Test [1] deals with T1, Human GPR120 short form (Homo sapiens, UniProt Q5NUL3).
T1 construct: expressed in transfected cells
T1 sequence (Q5NUL3 1-361): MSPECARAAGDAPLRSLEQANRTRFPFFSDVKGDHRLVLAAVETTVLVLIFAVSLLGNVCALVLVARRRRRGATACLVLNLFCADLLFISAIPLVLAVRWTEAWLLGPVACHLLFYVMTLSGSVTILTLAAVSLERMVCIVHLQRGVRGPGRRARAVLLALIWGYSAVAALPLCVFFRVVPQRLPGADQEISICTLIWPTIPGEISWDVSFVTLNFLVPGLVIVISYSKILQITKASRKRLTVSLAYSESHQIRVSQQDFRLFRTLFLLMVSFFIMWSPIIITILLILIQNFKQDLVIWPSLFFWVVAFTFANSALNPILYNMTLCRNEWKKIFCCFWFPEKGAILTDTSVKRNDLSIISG
In words: Human GPR120 calcium flux assay, Procedure Calcium B (4200 cells/well). A digest of the protocol:
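HEK293 cells stably expressing human GPR120 (NM_001195755.1), 4200 cells/well, starved 1 h and loaded with Fluo-4 NW plus probenecid. Ligand-evoked calcium flux read on FLIPR for 300 s after a 10 s baseline. RFU = Fmax−Fmin; EC50 from four-parameter concentration-response fit.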
(In general: A change in cytosolic calcium serves as a functional read-out for many receptors and channels.)

Test [2] addresses T1, Human GPR120 short form. In words: Human GPR120 calcium flux assay, Procedure Calcium A (2500 cells/well). A digest of the protocol:
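HEK293 cells stably expressing human GPR120 short isoform (NM_001195755.1), 2500 cells/well, serum-starved 1 h at 37 °C and loaded with Fluo-4 NW plus probenecid. FLIPR fluorescence read for 300 s after compound addition; response = Fmax−Fmin. EC50 from four-parameter concentration–response fit.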

For the next test, the target named is T2, human GPR40 (Homo sapiens, UniProt O14842).
T2 construct: expressed in transfected cells
In words: GPR40 calcium flux assay, human GPR40. Conditions: HEK293 cells stably expressing GPR40; table does not say human or rat. A digest of the protocol: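 Cells preincubated 1 h at 37° C. in HBSS, 20 mM HEPES, 0.1% BSA, then Fluo 8 calcium dye 30 min at 37° C. and 15 min at room temperature.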

T2 sequence (O14842 whole entry): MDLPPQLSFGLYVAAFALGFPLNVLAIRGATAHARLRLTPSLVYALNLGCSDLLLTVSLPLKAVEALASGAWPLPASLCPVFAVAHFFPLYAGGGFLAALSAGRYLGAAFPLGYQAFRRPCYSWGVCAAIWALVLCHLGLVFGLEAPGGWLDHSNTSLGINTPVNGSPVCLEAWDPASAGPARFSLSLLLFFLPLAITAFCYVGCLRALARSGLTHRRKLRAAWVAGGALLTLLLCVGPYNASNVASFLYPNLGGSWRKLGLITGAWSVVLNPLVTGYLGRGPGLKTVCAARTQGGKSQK

Turning to `Cc1c(CCC(=O)O)ccc(OCC2=C(c3ccc(F)cc3)CCC2)c1C` [Compound 4, 3-[4-[[2-(4-fluorophenyl)cyclopenten-1-yl]methoxy]-2,3-dimethyl-phenyl]Propanoic Acid], the concentration for a half-maximal effect (EC50) on Human GPR120 short form [1] is 44 nM; at Human GPR120 short form [2], 294 nM; at human GPR40 it was more than 5000 nM.

On to `O=C(O)CCc1cc(F)c(OCC2=C(c3ccc(Cl)cc3)CCCC2)c(F)c1` [Compound 510, 3-[4-[[2-(4-chlorophenyl)cyclohexen-1-yl]methoxy]-3,5-difluoro-phenyl]Propanoic Acid], for which the EC50 is 33 nM at Human GPR120 short form [1], 561 nM at Human GPR120 short form [2] and more than 10000 nM at human GPR40.

For `Cc1ccc(C2=C(COc3c(F)cc(CCC(=O)O)cc3F)CCCC2)cc1F` [Compound 493, 3-[3,5-difluoro-4-[[2-(3-fluoro-4-methyl-phenyl)cyclohexen-1-yl]methoxy]phenyl]Propanoic Acid], the EC50 on Human GPR120 short form [1] is 37 nM; on Human GPR120 short form [2], 123 nM; at human GPR40, more than 5000 nM.

Turning to `Cc1c(CCC(=O)O)ccc(OCC2=C(c3ccc(Cl)c(Cl)c3)CCC2)c1C` [Compound 66, 3-[4-[[2-(3,4-dichlorophenyl)cyclopenten-1-yl]methoxy]-2,3-dimethyl-phenyl]Propanoic Acid], the EC50 was 205 nM at Human GPR120 short form [1], 658 nM at Human GPR120 short form [2] and more than 5000 nM at human GPR40.

Take `Cc1ccc(C2=C(COc3ccc(CCC(=O)O)c(C)c3C)CCCC2)cc1F` [Compound 496, 3-[4-[[2-(3-fluoro-4-methyl-phenyl)cyclohexen-1-yl]methoxy]-2,3-dimethyl-phenyl]Propanoic Acid]: the EC50 at Human GPR120 short form [1] is 81 nM; at Human GPR120 short form [2], 297 nM; at human GPR40, more than 5000 nM.

As to `Cc1ccc(C2=C(COc3ccc(CCC(=O)O)c(F)c3F)CCCC2)cc1F` [Compound 494, 3-[2,3-difluoro-4-[[2-(3-fluoro-4-methyl-phenyl)cyclohexen-1-yl]methoxy]phenyl]Propanoic Acid], the values for the EC50 on Human GPR120 short form [1], on Human GPR120 short form [2] and on human GPR40 were 37 nM, 117 nM and more than 5000 nM, respectively.

With `Cc1ccc(C2=C(COc3ccc(CCC(=O)O)c(C)c3C)CCC2)cc1F` [Compound 80, 3-(4-((2-(3-fluoro-4-methylphenyl)cyclopent-1-en-1-yl)methoxy)-2,3-dimethylphenyl)Propanoic Acid], the figures for the concentration for a half-maximal effect (EC50) on Human GPR120 short form [1], at Human GPR120 short form [2] and at human GPR40 were 19 nM, 81 nM and more than 5000 nM, respectively.

Regarding `Cc1c(CCC(=O)O)ccc(OCC2=C(c3cccs3)CCC2)c1C` [Compound 77, 3-[2,3-dimethyl-4-[[2-(2-thienyl)cyclopenten-1-yl]methoxy]phenyl]Propanoic Acid], the EC50 at Human GPR120 short form [1] is 122 nM; at Human GPR120 short form [2] it was 508 nM; on human GPR40 it was more than 10000 nM.

On to `Cc1c(CCC(=O)O)ccc(OCC2=C(c3ccc(OC(F)(F)F)cc3)CCC2)c1C` [Compound 20, 3-(2,3-dimethyl-4-((2-(4-(trifluoromethoxy)phenyl)cyclopent-1-en-1-yl)methoxy)phenyl)Propanoic Acid], for which the EC50 on Human GPR120 short form [2] is more than 20000 nM; at human GPR40, more than 5000 nM.

In the case of `Cc1c(CCC(=O)O)ccc(OCC2=C(c3cncs3)CCC2)c1C` [Compound 88, 3-[2,3-dimethyl-4-[(2-thiazol-5-ylcyclopenten-1-yl)methoxy]phenyl]Propanoic Acid], the EC50 at Human GPR120 short form [1] is 233 nM; on Human GPR120 short form [2], 461 nM; on human GPR40, more than 5000 nM.

`Cc1c(CCC(=O)O)ccc(OCC2=C(c3ccc(Cl)cc3Cl)CCC2)c1C` [Compound 133, 3-[4-[[2-(2,4-dichlorophenyl)cyclopenten-1-yl]methoxy]-2,3-dimethyl-phenyl]Propanoic Acid]: the EC50 at Human GPR120 short form [1] was 344 nM; on Human GPR120 short form [2], 682 nM; at human GPR40 it was more than 5000 nM.

In the case of `O=C(O)CCc1ccc(OCC2=C(c3ccc(Cl)cc3)CCCC2)c(F)c1` [Compound 511, 3-[4-[[2-(4-chlorophenyl)cyclohexen-1-yl]methoxy]-3-fluoro-phenyl]Propanoic Acid], the EC50 on Human GPR120 short form [1] was 35 nM; at Human GPR120 short form [2], 572 nM; on human GPR40, more than 10000 nM.

Take `Cc1c(CCC(=O)O)ccc(OCC2=C(c3ccc(Cl)cc3)CCC2)c1C` [Compound 15, 3-(4-((2-(4-chlorophenyl)cyclopent-1-en-1-yl)methoxy)-2,3-dimethylphenyl)Propanoic Acid]: the values for the concentration giving a half-maximal response (EC50) on Human GPR120 short form [1], on Human GPR120 short form [2] and at human GPR40 were 70 nM, 206 nM and more than 5000 nM, respectively.

On to `Cc1ccc(C2=C(COc3ccc(CCC(=O)O)c(C)c3C)CCC2)cc1` [Compound 52, 3-[2,3-dimethyl-4-[[2-(p-tolyl)cyclopenten-1-yl]methoxy]phenyl]Propanoic Acid], for which the half-maximal effective concentration (EC50) on Human GPR120 short form [1] is 24 nM; on Human GPR120 short form [2], 173 nM; on human GPR40 it was more than 10000 nM.

With `Cc1cc(CCC(=O)O)ccc1OCC1=C(c2ccc(Cl)cc2)CCCC1` [Compound 483, 3-[4-[[2-(4-chlorophenyl)cyclohexen-1-yl]methoxy]-3-methyl-phenyl]Propanoic Acid], the EC50 at Human GPR120 short form [1] came to 52 nM; on Human GPR120 short form [2] it was 255 nM; on human GPR40 it was 3530 nM.

For the molecule `Cc1c(CCC(=O)O)ccc(OCC2=C(c3ccc(N(C)C)cc3)CCCC2)c1C` [Compound 512, 3-[4-[[2-(4-dimethylaminophenyl)cyclohexen-1-yl]methoxy]-2,3-dimethyl-phenyl]Propanoic Acid], the EC50 was 140 nM on Human GPR120 short form [1], 808 nM on Human GPR120 short form [2] and more than 5000 nM at human GPR40.

Take `Cc1cc(CCC(=O)O)ccc1OCC1=C(c2ccc(Cl)cc2)CCC(F)(F)C1` [Compound 467, 3-(4-((4′-chloro-4,4-difluoro-3,4,5,6-tetrahydro-[1,1′-biphenyl]-2-yl)methoxy)-3-methylphenyl)Propanoic Acid]: the figures for the EC50 on Human GPR120 short form [1], on Human GPR120 short form [2] and on human GPR40 were 40 nM, 199 nM and more than 5000 nM, respectively.

`Cc1c(CCC(=O)O)ccc(OCC2=C(c3ccccc3F)CCC2)c1C` [Compound 124, 3-[4-[[2-(2-fluorophenyl)cyclopenten-1-yl]methoxy]-2,3-dimethyl-phenyl]Propanoic Acid]: the concentration for a half-maximal effect (EC50) is 67 nM on Human GPR120 short form [1], 308 nM at Human GPR120 short form [2] and more than 5000 nM at human GPR40.

In the case of `Cc1c(CCC(=O)O)ccc(OCC2=C(c3ncccn3)CCC2)c1C` [Compound 105, 3-[2,3-dimethyl-4-[(2-pyrimidin-2-ylcyclopenten-1-yl)methoxy]phenyl]Propanoic Acid], the results for the 50% effective concentration (EC50) on Human GPR120 short form [1], on Human GPR120 short form [2] and on human GPR40 were 183 nM, 1630 nM and more than 5000 nM, respectively.

As for `CCc1ccc(C2=C(COc3ccc(CCC(=O)O)c(F)c3F)CCC2)cc1` [Compound 25, 3-(4-((2-(4-ethylphenyl)cyclopent-1-en-1-yl)methoxy)-2,3-difluorophenyl)Propanoic Acid], the values for the concentration giving a half-maximal response (EC50) on Human GPR120 short form [2] and on human GPR40 were 129 nM and more than 5000 nM, respectively.

For the molecule `O=C(O)CCc1ccc(OCC2=C(c3ccc(Cl)cc3)CCC2)cc1F` [Compound 47, 3-[4-[[2-(4-chlorophenyl)cyclopenten-1-yl]methoxy]-2-fluoro-phenyl]Propanoic Acid], the EC50 at Human GPR120 short form [1] worked out at 103 nM; on Human GPR120 short form [2] it was 582 nM; on human GPR40, 932 nM.

As for `Cc1c(CCC(=O)O)ccc(OCC2=C(c3ccc(Cl)cc3)CC(F)(F)C2)c1C` [Compound 137, 3-[4-[[2-(4-chlorophenyl)-4,4-difluoro-cyclopenten-1-yl]methoxy]-2,3-dimethyl-phenyl]Propanoic Acid], the figures for the EC50 at Human GPR120 short form [1] and at human GPR40 were 65 nM and more than 5000 nM, respectively.

In general, EC50 refers to the concentration giving half of the maximal effect.
